Assay results reported in patent publication US10895019B2, “Encoded self-assembling chemical libraries (ESACHEL)” (Eidgenoessische Technische Hochschule Zurich, priority 2002, dated 2021).

Legend:
streptavidin = streptavidin (Streptomyces avidinii, UniProt P22629); details: Green (1966); cited from earlier work
human carbonic anhydrase = test: carbonic anhydrase activity assay with substrate 4-Nitrophenylacetate (Pocker and Stone); assay type: biochemical; details: absorption at 400 nm, read-out: IC50 towards human carbonic anhydrase
Protocol: We measured the inhibitory concentration 50 [IC50] of 4-sulfonamido benzoic acid propylamide using an activity assay described by Pocker and Stone [(1967), Biochemistry 6, 668-678]. In short, we incubated carbonic anhydrase in separate wells of a transparent 96 well microtiter plate with different concentrations of the inhibitor and the substrate 4-Nitrophenylacetate. The proceeding of the reaction was monitored at the increase of absorption at 400 nm due to formation of the product 4-nitrophenol.

Chain of streptavidin (P22629 25-183): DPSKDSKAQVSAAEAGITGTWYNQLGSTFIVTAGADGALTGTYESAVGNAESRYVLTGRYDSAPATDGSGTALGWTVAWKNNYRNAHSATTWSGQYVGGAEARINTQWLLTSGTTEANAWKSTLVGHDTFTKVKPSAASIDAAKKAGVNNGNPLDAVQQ

In the case of `N=C1N[C@H]2[C@H](CS[C@H]2CCCCC(=O)O)N1` [Iminobiotin], the “affinity to streptavidin relative to biotin” value (streptavidin) is listed as “substantially reduced affinity”.
In the case of `CCCNC(=O)c1ccc(S(N)(=O)=O)cc1` [4-sulfonamido benzoic acid propylamide], the IC50 (human carbonic anhydrase) is reported as 6 µM.
